Data as given in US12319672B2, “Alpha-D-galactopyranoside derivatives” (Idorsia Pharmaceuticals Ltd, priority 2019, dated 2025).

Experiments:
human Gal-1 (hGal-1) = experiment: Competitive binding assay: binding of biotinylated hGal-1 to microplate-adsorbed asialofetuin (ASF); conditions: Activities on hGal-1; mean values of several measurements
Experimental: (§1) Evaluation of Compound Inhibitory Activity (IC50)
(§2) The inhibitory activity of compounds is determined in competitive binding assays. This spectrophotometric assay measures the binding of biotinylated human Gal-3 (hGal-3) or human Gal-1 (hGal-1), respectively, to a microplate-adsorbed glycoprotein, asialofetuin (ASF) (Proc Natl Acad Sci USA. 2013 Mar. 26; 110(13):5052-7.). Alternatively, and preferably, a human Gal-1 version in which all six cysteines are substituted by serines may be used.
(§3) Briefly, compounds are serially diluted in DMSO (working dilutions). ASF-coated 384 well plates are supplemented with 22.8 μL/well of biotinylated hGal-3 or hGal-1 in assay buffer (i.e. 300-1000 ng/mL biotinylated hGal-3 or hGal-1) to which 1.2 μL of compound working dilutions are added and mixed.
(§4) Plates are incubated for 3 hours at 4° C., then washed with cold assay buffer (3×50 uL), incubated for 1 hour with 25 μL/well of a streptavidin-peroxidase solution (diluted in assay buffer to 80 ng/mL) at 4° C., followed by further washing steps with assay buffer (3×50 uL). Finally, 25 μL/well of ABTS substrate is added.
(§5) The calculated IC50 values may fluctuate depending on the daily assay performance. Fluctuations of this kind are known to those skilled in the art. IC50 values from several measurements are given as mean values.

human Gal-3 (hGal-3) = human Gal-3 (hGal-3) (Homo sapiens (Human), UniProt P17931); experiment: Competitive binding assay: binding of biotinylated hGal-3 to microplate-adsorbed asialofetuin (ASF); conditions: Activity on hGal-3; mean values of several measurements
Experimental: as §1, §2, §3, §4, §5

Sequence of human Gal-1 (hGal-1) (P09382 2-135 limits assumed): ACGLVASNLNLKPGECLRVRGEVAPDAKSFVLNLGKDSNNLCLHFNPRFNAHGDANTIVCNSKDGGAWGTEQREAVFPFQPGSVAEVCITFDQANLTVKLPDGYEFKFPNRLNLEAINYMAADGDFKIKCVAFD
Sequence of human Gal-3 (hGal-3) (P17931 whole entry): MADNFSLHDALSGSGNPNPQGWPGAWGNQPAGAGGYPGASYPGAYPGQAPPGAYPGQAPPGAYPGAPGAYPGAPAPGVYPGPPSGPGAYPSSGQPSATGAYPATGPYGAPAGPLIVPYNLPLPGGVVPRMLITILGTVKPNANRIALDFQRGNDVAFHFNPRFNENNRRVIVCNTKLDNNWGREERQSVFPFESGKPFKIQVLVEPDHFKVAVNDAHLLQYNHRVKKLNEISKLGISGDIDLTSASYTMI

Row | IC50 (human Gal-1 (hGal-1)) | IC50 (human Gal-3 (hGal-3)) | Structure (SMILES)
1 | 520 nM | 44 nM | CCOC(=O)N1CCC(c2cn(C[C@H]3O[C@H](CO)[C@H](O)[C@H](n4cc(-c5cc(F)c(F)c(F)c5)nn4)[C@H]3OC)nn2)CC1 [Example 4.39, ethyl 4-(1-(((2R,3R,4S,5R,6R)-5-hydroxy-6-(hydroxymethyl)-3-methoxy-4-(4-(3,4,5-trifluorophenyl)-1H-1,2,3-triazol-1-yl)tetrahydro-2H-pyran-2-yl)methyl)-1H-1,2,3-triazol-4-yl)piperidine-1-carboxylate]
2 | 450 nM | 94 nM | CO[C@@H]1[C@@H](n2cc(-c3cc(F)c(F)c(F)c3)nn2)[C@@H](O)[C@@H](CO)O[C@@H]1Cc1cc(C2(C)COC2)no1 [Ex 1.211]
3 | 1000 nM | 290 nM | CO[C@@H]1[C@@H](n2cc(-c3cc(F)c(F)c(F)c3)nn2)[C@@H](O)[C@@H](CO)O[C@@H]1CC1CC(C2CCN(C(=O)OC(C)(C)C)CC2)=NO1 (some centres unmarked) [Ex 1.46]
4 | 4720 nM | 430 nM | CC(=O)N1CCC([C@H]2CC(C[C@H]3O[C@H](CO)[C@H](O)[C@H](n4cc(-c5cc(F)c(F)c(F)c5)nn4)[C@H]3O)=NO2)CC1 [Example 3.19, 1-(4-((R)-3-(((2R,3R,4R,5R,6R)-3,5-dihydroxy-6-(hydroxymethyl)-4-(4-(3,4,5-trifluorophenyl)-1H-1,2,3-triazol-1-yl)tetrahydro-2H-pyran-2-yl)methyl)-4,5-dihydroisoxazol-5-yl)piperidin-1-yl)ethan-1-one]
5 | 5610 nM | 510 nM | OC[C@H]1O[C@H](CC2CC(C3CCCC3)=NO2)[C@H](O)[C@@H](n2cc(-c3cc(F)c(F)c(F)c3)nn2)[C@H]1O (some centres unmarked) [Ex 1.11]
6 | 1360 nM | 75 nM | CO[C@@H]1[C@@H](n2cc(-c3cc(F)c(F)c(F)c3)nn2)[C@@H](O)[C@@H](CO)O[C@@H]1Cc1cc(C2CCC(=O)NC2)no1 (some centres unmarked) [Ex 1.114]
7 | 1400 nM | 97 nM | CN=S(=O)(C(C)C)N1CCC(c2cc(C[C@H]3O[C@H](CO)[C@H](O)[C@H](n4cc(-c5cc(F)c(F)c(F)c5)nn4)[C@H]3OC)no2)CC1 (mixture of isomers) [Example 3.57, (RS)-(2R,3R,4S,5R,6R)-2-(hydroxymethyl)-5-methoxy-6-((5-(1-(N-methylpropan-2-ylsulfonimidoyl)piperidin-4-yl)isoxazol-3-yl)methyl)-4-(4-(3,4,5-trifluorophenyl)-1H-1,2,3-triazol-1-yl)tetrahydro-2H-pyran-3-ol]
8 | 9010 nM | 41 nM | Cc1ccc(-c2cn([C@H]3[C@@H](O)[C@@H](CO)O[C@H](Cc4cc(C(C)(C)C)on4)[C@@H]3O)nn2)c(F)c1F [Ex 1.205]
9 | 8210 nM | 110 nM | CO[C@@H]1[C@@H](n2cc(-c3ccc(C)c(F)c3F)nn2)[C@@H](O)[C@@H](CO)O[C@@H]1Cc1cc(C2CCC2O)on1 (some centres unmarked) [Ex 1.347]
10 | 380 nM | 34 nM | CO[C@@H]1[C@@H](n2cc(-c3cc(F)c(F)c(F)c3)nn2)[C@@H](O)[C@@H](CO)O[C@@H]1Cn1cc(C2CCN(C(=O)NC(C)(C)C)CC2)nn1 [Example 4.27, N-(tert-butyl)-4-(1-(((2R,3R,4S,5R,6R)-5-hydroxy-6-(hydroxymethyl)-3-methoxy-4-(4-(3,4,5-trifluorophenyl)-1H-1,2,3-triazol-1-yl)tetrahydro-2H-pyran-2-yl)methyl)-1H-1,2,3-triazol-4-yl)piperidine-1-carboxamide]
11 | 4500 nM | 650 nM | CO[C@@H]1[C@@H](n2cc(-c3cc(F)c(F)c(F)c3)nn2)[C@@H](O)[C@@H](CO)O[C@@H]1Cc1cc(C2CCNC2)on1 (mixture of isomers) [Example 2.08, (2R,3R,4S,5R,6R)-2-(hydroxymethyl)-5-methoxy-6-((5-((RS)-pyrrolidin-3-yl)isoxazol-3-yl)methyl)-4-(4-(3,4,5-trifluorophenyl)-1H-1,2,3-triazol-1-yl)tetrahydro-2H-pyran-3-ol]
12 | 9070 nM | 190 nM | CO[C@@H]1[C@@H](n2cc(-c3cc(F)c(F)c(F)c3)nn2)[C@@H](O)[C@@H](CO)O[C@@H]1CC1CN(C2CCOCC2)C(=O)O1 (mixture of isomers) [Example 5.17, (RS)-5-(((2R,3R,4S,5R,6R)-5-hydroxy-6-(hydroxymethyl)-3-methoxy-4-(4-(3,4,5-trifluorophenyl)-1H-1,2,3-triazol-1-yl)tetrahydro-2H-pyran-2-yl)methyl)-3-(tetrahydro-2H-pyran-4-yl)oxazolidin-2-one]
13 | 590 nM | 52 nM | Cc1ccc(-c2cn([C@H]3[C@@H](O)[C@@H](CO)O[C@H](Cc4cc(C(C)(C)C)no4)[C@@H]3OCc3cscn3)nn2)c(F)c1F [Example 2.54, (2R,3R,4S,5R,6R)-6-((3-(tert-butyl)isoxazol-5-yl)methyl)-4-(4-(2,3-difluoro-4-methylphenyl)-1H-1,2,3-triazol-1-yl)-2-(hydroxymethyl)-5-(thiazol-4-ylmethoxy)tetrahydro-2H-pyran-3-ol]
14 | 4910 nM | 260 nM | CO[C@@H]1[C@@H](n2cc(-c3cc(F)c(F)c(F)c3)nn2)[C@@H](O)[C@@H](CO)O[C@@H]1Cc1cc(C2CCNC(=O)C2)no1 (some centres unmarked) [Ex 1.92]
15 | 790 nM | 180 nM | CO[C@@H]1[C@@H](n2cc(-c3cc(F)c(F)c(F)c3)nn2)[C@@H](O)[C@@H](CO)O[C@@H]1CC1CN(C2CCN(S(C)(=O)=O)CC2)C(=O)O1 (mixture of isomers) [Example 5.04, (RS)-5-(((2R,3R,4S,5R,6R)-5-hydroxy-6-(hydroxymethyl)-3-methoxy-4-(4-(3,4,5-trifluorophenyl)-1H-1,2,3-triazol-1-yl)tetrahydro-2H-pyran-2-yl)methyl)-3-(1-(methylsulfonyl)piperidin-4-yl)oxazolidin-2-one]
16 | 2580 nM | 250 nM | CO[C@@H]1[C@@H](n2cc(-c3cc(F)c(F)c(F)c3)nn2)[C@@H](O)[C@@H](CO)O[C@@H]1CC1CC(C(C)(C)C)=NO1 (some centres unmarked) [Ex 1.265]
17 | 140 nM | 23 nM | CCOC(=O)N1CCC(c2cc(C[C@H]3O[C@H](CO)[C@H](O)[C@H](n4cc(-c5ccc(F)c(F)c5F)nn4)[C@H]3OC)no2)CC1 [Ex 1.150]
18 | 790 nM | 97 nM | CO[C@@H]1[C@@H](n2cc(-c3ccc(Br)c(F)c3F)nn2)[C@@H](O)[C@@H](CO)O[C@@H]1CC1CC(C2CCN(C(=O)OC(C)(C)C)CC2)=NO1 (some centres unmarked) [Ex 1.141]
19 | 780 nM | 130 nM | CCO[C@@H]1[C@@H](n2cc(-c3cc(F)c(F)c(F)c3)nn2)[C@@H](O)[C@@H](CO)O[C@@H]1Cc1cc(C2CCN(C(=O)OC(C)(C)C)CC2)on1 [Example 2.17, tert-butyl 4-(3-(((2R,3R,4S,5R,6R)-3-ethoxy-5-hydroxy-6-(hydroxymethyl)-4-(4-(3,4,5-trifluorophenyl)-1H-1,2,3-triazol-1-yl)tetrahydro-2H-pyran-2-yl)methyl)isoxazol-5-yl)piperidine-1-carboxylate]
20 | 9820 nM | 450 nM | CC(C)(C)OC(=O)N1CCC(C2=NOC(C[C@H]3O[C@H](CO)[C@H](O)[C@H](n4cc(-c5ccc(C(F)(F)F)c(F)c5)nn4)[C@H]3O)C2)CC1 (some centres unmarked) [Ex 1.103]
21 | 1880 nM | 23 nM | CO[C@@H]1[C@@H](n2cc(-c3ccc(C)c(F)c3F)nn2)[C@@H](O)[C@@H](CO)O[C@@H]1Cc1cc(C(C)(C)CN)no1 [Ex 1.336]
22 | 12300 nM | 910 nM | O=c1cc(C2=NO[C@@H](C[C@H]3O[C@H](CO)[C@H](O)[C@H](n4cc(-c5cc(F)c(F)c(F)c5)nn4)[C@H]3O)C2)cc[nH]1 [Example 2.04, 4-((R)-5-(((2R,3R,4R,5R,6R)-3,5-dihydroxy-6-(hydroxymethyl)-4-(4-(3,4,5-trifluorophenyl)-1H-1,2,3-triazol-1-yl)tetrahydro-2H-pyran-2-yl)methyl)-4,5-dihydroisoxazol-3-yl)pyridin-2(1H)-one]
23 | 960 nM | 57 nM | CO[C@@H]1[C@@H](n2cc(-c3ccc(F)c(F)c3F)nn2)[C@@H](O)[C@@H](CO)O[C@@H]1Cc1cc(C2(O)CCC2)on1 [Ex 1.236]
24 | 14500 nM | 200 nM | CC(C)(C)OC(=O)NC1CCC(c2cc(C[C@H]3O[C@H](CO)[C@H](O)[C@H](n4cc(-c5cc(F)c(F)c(F)c5)nn4)[C@H]3O)no2)CC1 (some centres unmarked) [Ex 1.81]
25 | 1780 nM | 150 nM | CO[C@@H]1[C@@H](n2cc(-c3ccc(Br)c(F)c3)nn2)[C@@H](O)[C@@H](CO)O[C@@H]1Cc1cc(C2CCN(C(=O)OC(C)(C)C)CC2)on1 [Ex 1.249]
26 | 380 nM | 49 nM | CO[C@@H]1[C@@H](n2cc(-c3ccc(F)c(F)c3F)nn2)[C@@H](O)[C@@H](CO)O[C@@H]1Cc1cc(C2(C)CCOCC2)no1 [Ex 1.283]
27 |  | 71 nM | CO[C@@H]1[C@@H](n2cc(-c3cc(F)c(F)c(F)c3)nn2)[C@@H](O)[C@@H](CO)O[C@@H]1Cc1cc(C2CCN(C(=O)CC(F)(F)F)CC2)on1 [Example 3.51, 3,3,3-trifluoro-1-(4-(3-(((2R,3R,4S,5R,6R)-5-hydroxy-6-(hydroxymethyl)-3-methoxy-4-(4-(3,4,5-trifluorophenyl)-1H-1,2,3-triazol-1-yl)tetrahydro-2H-pyran-2-yl)methyl)isoxazol-5-yl)piperidin-1-yl)propan-1-one]
